Laboratory results taken from patent publication US11332452B2, “Pesticidal compositions and methods” (priority 2019, dated 2022).

What was measured:
Assay type in all cases: in vivo
[1] = tested on: Beet Armyworm (Spodoptera exigua, LAPHEG); assay: Insecticidal test for beet armyworm (BAW), 128-well diet tray assay; settings: 168 h, 50 μg/cm^2 of test compound on artificial diet, second instar larvae, 25° C., five to seven days, average of eight wells, read-out: BAW % Control (or Mortality) rating
Protocol: Insecticidal Test for Beet Armyworm (Spodoptera exigua, LAPHEG) (“BAW”)
(§1) Bioassays on beet armyworm (BAW; Spodoptera exigua: Lepidoptera) are conducted using a 128-well diet tray assay. One to five second instar BAW larvae are placed in each well (3 mL) of the diet tray that had been previously filled with 1 mL of artificial diet to which 50 μg/cm^2 of the test compound (dissolved in 50 μL of 90:10 acetone-water mixture) had been applied (to each of eight wells) and then allowed to dry. Trays are covered with a clear self-adhesive cover, vented to allow gas exchange, and held at 25° C., 14:10 light-dark for five to seven days. Percent mortality is recorded for the larvae in each well; activity in the eight wells is then averaged.

[2] = tested on: Cabbage Looper (Trichloplusia Ni, TRIPNI); assay: Insecticidal test for cabbage looper (CL), 128-well diet tray assay; settings: Trichoplusia ni, 168 h, read-out: CL % Control (or Mortality) rating
Protocol: Insecticidal Test for Cabbage Looper (Trichloplusia Ni, TRIPNI) (“CL”)
as §1, with “cabbage looper (CL; Trichloplusia ni:” for “beet armyworm (BAW; Spodoptera exigua:”, “CL” for “BAW”

[3] = tested on: Yellow Fever Mosquito (Aedes aegypti, AEDSAE); assay: Insecticidal test for yellow fever mosquito (YFM), 96-well plate larval assay; settings: from 4000 ppm DMSO master solution, diluted; about 1 day-old larvae; room temperature; scored after 3 days
Protocol: Insecticidal Test for Yellow Fever Mosquito (Aedes aegypti, AEDSAE) (“YFM”)
Master plates containing 400 μg of a molecule dissolved in 100 μL of dimethyl sulfoxide (DMSO) (equivalent to a 4000 ppm solution) are used. A master plate of assembled molecules contains 15 μL per well. To this plate, 135 μL of a 90:10 water/acetone mixture is added to each well. A robot (Biomek® NXP Laboratory Automation Workstation) is programmed to dispense 15 μL aspirations from the master plate into an empty 96-well shallow plate (“daughter” plate). There are 6 reps (“daughter” plates) created per master. The created “daughter” plates are then immediately infested with YFM larvae.
The day before plates are to be treated, mosquito eggs are placed in Millipore water containing liver powder to begin hatching (4 g. into 400 mL). After the “daughter” plates are created using the robot, they are infested with 220 μL of the liver powder/larval mosquito mixture (about 1 day-old larvae). After plates are infested with mosquito larvae, a non-evaporative lid is used to cover the plate to reduce drying. Plates are held at room temperature for 3 days prior to grading. After 3 days, each well is observed and scored based on mortality.

Compound | mortality at 50 µg/cm2 [1] [%] | mortality at 50 µg/cm2 [2] [%] | YFM % Control (or Mortality) rating [3]
Cc1ccc(C(C)C)c(-n2ccs/c2=N\C(=O)NCCc2ccc(NC(=O)Nc3ccc(OC(F)(F)F)cc3)cc2)c1 [Compound A22, (Z)-1-(4-(2-(3-(3-(2-Isopropyl-5-methylphenyl)thiazol-2(3H)-ylidene)ureido)ethyl)phenyl)-3-(4-(trifluoromethoxy)phenyl)urea] | 50 to 100 | 50 to 100 | A (80-100)
O=C(/N=C1\SCC(=O)N1c1cccc2c1CCCC2)NCCc1ccc(NC(=O)Nc2ccc(OC(F)(F)F)cc2)cc1 [Compound A24, (Z)-1-(4-(2-(3-(4-Oxo-3-(5,6,7,8-tetrahydronaphthalen-1-yl)thiazolidin-2-ylidene)ureido)ethyl)phenyl)-3-(4-(trifluoromethoxy)phenyl)urea] | 50 to 100 | 50 to 100 | B (More than 0-Less than 80)
Cc1ccc(C(C)C)c(N2C(=O)CS/C2=N\C(=O)Nc2ccc(NNC(=O)c3ccc(OC(F)(F)F)cc3)cc2)c1 [Compound A4, (Z)-1-(3-(2-isopropyl-5-methylphenyl)-4-oxothiazolidin-2-ylidene)-3-(4-(2-(4-(trifluoromethoxy)benzoyl)hydrazinyl)phenyl)urea] | 50 to 100 | 50 to 100 | A (80-100)
Cc1ccc(C(C)C)c(N2C(=O)CS/C2=N\C(=O)Nc2ccc(NC(=O)Nc3ccc(OC(F)(F)F)cc3)cc2)c1 [Compound A7, (Z)-1-(3-(2-isopropyl-5-methylphenyl)-4-oxothiazolidin-2-ylidene)-3-(4-(3-(4-(trifluoromethoxy)phenyl)ureido)phenyl)urea] | 50 to 100 | 50 to 100 | A (80-100)
Cc1ccc(C(C)C)c(N2C(=O)CS/C2=N\C(=O)Nc2ccc(CCOC(=O)Nc3ccc(OC(F)(F)F)cc3)cc2)c1 [Compound A52, (Z)-4-(3-(3-(2-isopropyl-5-methylphenyl)-4-oxothiazolidin-2-ylidene)ureido)phenethyl (4-(trifluoromethoxy)phenyl)carbamate] | 50 to 100 | 50 to 100 | A (80-100)
Cc1ccc(OCC(F)(F)F)c(N2C(=O)CS/C2=N\C(=O)NC(C)Cc2ccc(NC(=O)Nc3ccc(OC(F)(F)F)cc3)cc2)c1 (centres unmarked) [Compound A38, (Z)-1-(4-(2-(3-(3-(5-Methyl-2-(2,2,2-trifluoroethoxy)phenyl)-4-oxothiazolidin-2-ylidene)ureido)propyl)phenyl)-3-(4-(trifluoromethoxy)phenyl)urea] | 50 to 100 | 50 to 100 | B (More than 0-Less than 80)
CC(Cc1ccc(NC(=O)Nc2ccc(C(F)(F)F)cc2)cc1)NC(=O)/N=C1\SCC(=O)N1c1cc(Cl)ccc1C(C)C (centres unmarked) [Compound A29, (Z)-1-(4-(2-(3-(3-(5-Chloro-2-isopropylphenyl)-4-oxothiazolidin-2-ylidene)ureido)propyl)phenyl)-3-(4-(trifluoromethyl)phenyl)urea] | 50 to 100 | 50 to 100 | A (80-100)
Cc1ccc(C(C)C)c(N2C(=O)CS/C2=N\C(=O)NC(C)Cc2ccc(NC(=O)Nc3ccc(C(F)(F)F)cc3)cc2)c1 (centres unmarked) [Compound A27, (Z)-1-(4-(2-(3-(3-(2-Isopropyl-5-methylphenyl)-4-oxothiazolidin-2-ylidene)ureido)propyl)phenyl)-3-(4-(trifluoromethyl)phenyl)urea] | 50 to 100 | 50 to 100 | A (80-100)
CCC(C)Oc1ccc(C)cc1N1C(=O)CS/C1=N\C(=O)NCCc1ccc(NC(=O)Nc2ccc(OC(F)(F)F)cc2)cc1 (centres unmarked) [Compound A20] | 50 to 100 | 50 to 100 | B (More than 0-Less than 80)
CC(C)c1ccccc1N1C(=O)CS/C1=N\C(=O)NCCc1ccc(NC(=O)Nc2ccc(C(F)(F)F)cc2)cc1 [Compound A12, (Z)-1-(4-(2-(3-(3-(2-Isopropylphenyl)-4-oxothiazolidin-2-ylidene)ureido)ethyl)phenyl)-3-(4-(trifluoromethyl)phenyl)urea] | 50 to 100 | 50 to 100 | A (80-100)
COc1ccc(N2C(=O)CS/C2=N\C(=O)NCCc2ccc(NC(=O)Nc3ccc(C(F)(F)F)cc3)cc2)c(C)c1 [Compound A10, (Z)-1-(4-(2-(3-(3-(4-Methoxy-2-methylphenyl)-4-oxothiazolidin-2-ylidene)ureido)ethyl)phenyl)-3-(4-(trifluoromethyl)phenyl)urea] | 50 to 100 | 50 to 100 | A (80-100)
CC(C)c1ccc(Cl)cc1N1C(=O)CS/C1=N\C(=O)NCCc1ccc(NC(=O)Nc2ccc(C(F)(F)F)cc2)cc1 [Compound A13, (Z)-1-(4-(2-(3-(3-(5-Chloro-2-isopropylphenyl)-4-oxothiazolidin-2-ylidene)ureido)ethyl)phenyl)-3-(4-(trifluoromethyl)phenyl)urea] | 50 to 100 | 50 to 100 | A (80-100)
Cc1ccc(C(C)C)c(N2C(=O)CS/C2=N\C(=O)NCCc2ccc(NCC(=O)c3ccc(OC(F)(F)F)cc3)cc2)c1 [Compound A1, (Z)-1-(3-(2-isopropyl-5-methylphenyl)-4-oxothiazolidin-2-ylidene)-3-(4-((2-oxo-2-(4-(trifluoromethoxy)phenyl)ethyl)amino)phenethyl)urea] | 50 to 100 | 50 to 100 | A (80-100)
Cc1ccc(C(C)C)c(N2C(=O)CS/C2=N\C(=O)Nc2ccc(C(=O)NNc3ccc(OC(F)(F)F)cc3)cc2)c1 [Compound A2, (Z)-1-(3-(2-Isopropyl-5-methylphenyl)-4-oxothiazolidin-2-ylidene)-3-(4-(2-(4-(trifluoromethoxy)phenyl)hydrazine-1-carbonyl)phenyl)urea] | 50 to 100 | 50 to 100 | A (80-100)
CC(C)c1ccccc1N1C(=O)CS/C1=N\C(=O)Nc1ccc(N/N=C/c2ccc(OC(F)(F)F)cc2)cc1 [Compound A54, 1-((Z)-3-(2-isopropylphenyl)-4-oxothiazolidin-2-ylidene)-3-(4-(2-((E)-4-(trifluoromethoxy)benzylidene)hydrazinyl)phenyl)urea] | 50 to 100 | 50 to 100 | A (80-100)
CCc1cccc(C)c1N1C(=O)CS/C1=N\C(=O)NC(C)Cc1ccc(NC(=O)Nc2ccc(OC(F)(F)F)cc2)cc1 (centres unmarked) [Compound A40, (Z)-1-(4-(2-(3-(3-(2-Ethyl-6-methylphenyl)-4-oxothiazolidin-2-ylidene)ureido)propyl)phenyl)-3-(4-(trifluoromethoxy)phenyl)urea] | 50 to 100 | 50 to 100 | A (80-100)
CCc1cccc(C)c1N1C(=O)CS/C1=N\C(=O)NC(C)Cc1ccc(NC(=O)Nc2ccc(C(F)(F)F)cc2)cc1 (centres unmarked) [Compound A32, (Z)-1-(4-(2-(3-(3-(2-Ethyl-6-methylphenyl)-4-oxothiazolidin-2-ylidene)ureido)propyl)phenyl)-3-(4-(trifluoromethyl)phenyl)urea] | 50 to 100 | 50 to 100 | 
